# Experimental data as given in publication PMC5218480 (PLoS ONE, 2017).
# System: MV-4-11 cells
# Assay: Gene expression microarray analysis (Affymetrix PrimeView) and GSEA
# Assay type: cell-based, human
# Parameters: RFU PODN (11730768_x_at) / Fold change /veh PODN (11730768_x_at) / RFU LINC00158 (11744669_a_at) / Fold change /veh LINC00158 (11744669_a_at) / RFU DUSP10 (11751237_a_at) / Fold change /veh DUSP10 (11751237_a_at) / RFU ID3 (11757404_x_at) / Fold change /veh ID3 (11757404_x_at) / RFU PLEKHG5 (11737974_s_at) / Fold change /veh PLEKHG5 (11737974_s_at) / RFU LRRC4B (11730491_at) / Fold change /veh LRRC4B (11730491_at) / RFU GIMAP4 (11747438_a_at) / Fold change /veh GIMAP4 (11747438_a_at) / RFU KRT8 (11758183_x_at) / Fold change /veh KRT8 (11758183_x_at) / RFU CNN1 (11734310_a_at) / Fold change /veh CNN1 (11734310_a_at) / RFU VPS37D (11726825_at) / Fold change /veh VPS37D (11726825_at) / RFU C10orf10 (11716522_x_at) / Fold change /veh C10orf10 (11716522_x_at) / RFU KIR2DL2 /// KIR2DL4 /// KIR2DL5A /// KIR2DL5B /// KIR2DS1 /// KIR2DS2 /// KIR2DS3 /// KIR2DS4 /// KIR3DL3 /// KIR3DL3 /// KIR3DS1 (11738374_at) / Fold change /veh KIR2DL2 /// KIR2DL4 /// KIR2DL5A /// KIR2DL5B /// KIR2DS1 /// KIR2DS2 /// KIR2DS3 /// KIR2DS4 /// KIR3DL3 /// KIR3DL3 /// KIR3DS1 (11738374_at) / RFU C1QL1 (11718748_at) / Fold change /veh C1QL1 (11718748_at) / RFU TMPRSS4 (11747572_a_at) / Fold change /veh TMPRSS4 (11747572_a_at) / RFU HAMP (11756126_x_at) / Fold change /veh HAMP (11756126_x_at) / RFU RNFT2 (11725882_a_at) / Fold change /veh RNFT2 (11725882_a_at) / RFU NR4A2 (11747474_a_at) / Fold change /veh NR4A2 (11747474_a_at) / RFU ABCC12 (11746883_a_at) / Fold change /veh ABCC12 (11746883_a_at) / RFU TMEM136 (11760407_x_at) / Fold change /veh TMEM136 (11760407_x_at) / RFU CLDN22 /// WWC2 (11732394_at) / Fold change /veh CLDN22 /// WWC2 (11732394_at) / RFU HLA-DPB1 (11760878_x_at) / Fold change /veh HLA-DPB1 (11760878_x_at) / RFU SPINT1 (11716480_a_at) / Fold change /veh SPINT1 (11716480_a_at) / RFU GAP43 (11754022_s_at) / Fold change /veh GAP43 (11754022_s_at) / RFU A4GNT (11735810_at) / Fold change /veh A4GNT (11735810_at) / RFU PRB3 (11715151_x_at) / Fold change /veh PRB3 (11715151_x_at) / RFU TUBB4B (11761932_at) / Fold change /veh TUBB4B (11761932_at) / RFU CAPN14 (11732068_a_at) / Fold change /veh CAPN14 (11732068_a_at) / RFU TMCC2 (11721928_a_at) / Fold change /veh TMCC2 (11721928_a_at) / RFU IRGQ (11745062_a_at) / Fold change /veh IRGQ (11745062_a_at) / RFU FAM174B (11720279_a_at) / Fold change /veh FAM174B (11720279_a_at) / RFU TMPRSS4 (11748680_a_at) / Fold change /veh TMPRSS4 (11748680_a_at) / RFU FAM212B (11763350_a_at) / Fold change /veh FAM212B (11763350_a_at) / RFU PLEKHG5 (11743358_a_at) / Fold change /veh PLEKHG5 (11743358_a_at) / RFU ZSCAN30 (11745921_a_at) / Fold change /veh ZSCAN30 (11745921_a_at) / RFU CMKLR1 (11741424_a_at) / Fold change /veh CMKLR1 (11741424_a_at) / RFU LOC101060620 /// MAPK8IP1 (11723275_at) / Fold change /veh LOC101060620 /// MAPK8IP1 (11723275_at) / RFU SPTSSB (11747773_x_at) / Fold change /veh SPTSSB (11747773_x_at) / RFU PRSS12 (11739890_at) / Fold change /veh PRSS12 (11739890_at) / RFU BIN1 (11741810_x_at) / Fold change /veh BIN1 (11741810_x_at) / RFU WNT11 (11732464_a_at) / Fold change /veh WNT11 (11732464_a_at) / RFU C10orf10 (11716521_a_at) / Fold change /veh C10orf10 (11716521_a_at) / RFU C5orf56 (11738089_at) / Fold change /veh C5orf56 (11738089_at) / RFU CYB561 (11721691_x_at) / Fold change /veh CYB561 (11721691_x_at) / RFU ANKRD19P (11752326_a_at) / Fold change /veh ANKRD19P (11752326_a_at) / RFU OR2T12 /// OR2T33 /// OR2T8 (11738714_s_at) / Fold change /veh OR2T12 /// OR2T33 /// OR2T8 (11738714_s_at) / RFU VCAN (11748164_a_at) / Fold change /veh VCAN (11748164_a_at) / RFU JSRP1 (11732532_at) / Fold change /veh JSRP1 (11732532_at) / RFU KRTAP10-11 (11738290_x_at) / Fold change /veh KRTAP10-11 (11738290_x_at) / RFU MYO3A (11730013_a_at) / Fold change /veh MYO3A (11730013_a_at) / RFU EBF3 (11725865_a_at) / Fold change /veh EBF3 (11725865_a_at) / RFU CAMK2N1 (11719241_x_at) / Fold change /veh CAMK2N1 (11719241_x_at) / RFU C5orf56 (11738088_a_at) / Fold change /veh C5orf56 (11738088_a_at) / RFU OLFML3 (11715873_a_at) / Fold change /veh OLFML3 (11715873_a_at) / RFU LOC100653217 /// NTM (11731650_a_at) / Fold change /veh LOC100653217 /// NTM (11731650_a_at) / RFU MAPK11 (11762145_a_at) / Fold change /veh MAPK11 (11762145_a_at) / RFU FIZ1 (11724087_x_at) / Fold change /veh FIZ1 (11724087_x_at) / RFU OASL (11726364_x_at) / Fold change /veh OASL (11726364_x_at) / RFU SOX15 (11748057_x_at) / Fold change /veh SOX15 (11748057_x_at) / RFU CD79A (11719716_a_at) / Fold change /veh CD79A (11719716_a_at) / RFU HIST1H1D (11736915_at) / Fold change /veh HIST1H1D (11736915_at) / RFU CASKIN2 (11723855_a_at) / Fold change /veh CASKIN2 (11723855_a_at) / RFU LOC730098 (11760151_x_at) / Fold change /veh LOC730098 (11760151_x_at) / RFU OR4N2 (11742367_at) / Fold change /veh OR4N2 (11742367_at) / RFU PRRT2 (11749266_a_at) / Fold change /veh PRRT2 (11749266_a_at) / RFU SNX32 (11753110_a_at) / Fold change /veh SNX32 (11753110_a_at) / RFU CDHR5 (11726645_a_at) / Fold change /veh CDHR5 (11726645_a_at) / RFU RCAN1 (11760418_a_at) / Fold change /veh RCAN1 (11760418_a_at) / RFU FAM167A (11723789_a_at) / Fold change /veh FAM167A (11723789_a_at) / RFU FAM26E (11764081_at) / Fold change /veh FAM26E (11764081_at) / RFU ISYNA1 (11749810_s_at) / Fold change /veh ISYNA1 (11749810_s_at) / RFU ACY1 (11761880_at) / Fold change /veh ACY1 (11761880_at) / RFU 11764098_at / Fold change /veh 11764098_at / RFU SAMD14 (11745864_x_at) / Fold change /veh SAMD14 (11745864_x_at) / RFU NPB (11741838_a_at) / Fold change /veh NPB (11741838_a_at) / RFU TMPRSS6 (11731388_a_at) / Fold change /veh TMPRSS6 (11731388_a_at) / RFU KRTAP10-2 (11738614_at) / Fold change /veh KRTAP10-2 (11738614_at) / RFU ARHGAP8 /// PRR5-ARHGAP8 (11727945_x_at) / Fold change /veh ARHGAP8 /// PRR5-ARHGAP8 (11727945_x_at) / RFU KRTAP5-7 /// NADSYN1 (11734609_at) / Fold change /veh KRTAP5-7 /// NADSYN1 (11734609_at) / RFU RASL12 (11751679_a_at) / Fold change /veh RASL12 (11751679_a_at) / RFU CDKN2B (11736163_a_at) / Fold change /veh CDKN2B (11736163_a_at) / RFU PRF1 (11729649_at) / Fold change /veh PRF1 (11729649_at) / RFU, ZNF638 /// ZNF638-IT1 / Fold change vs veh, ZNF638 /// ZNF638-IT1 / RFU, PANK3 / Fold change vs veh, PANK3 / RFU, SH3YL1 / Fold change vs veh, SH3YL1 / RFU, ZEB2 / Fold change vs veh, ZEB2 / RFU, NRIP1 / Fold change vs veh, NRIP1 / RFU, PTTG1IP / Fold change vs veh, PTTG1IP / RFU, CAPN2 / Fold change vs veh, CAPN2 / RFU, MED14 / Fold change vs veh, MED14 / RFU, SNORA58 / Fold change vs veh, SNORA58 / RFU, C1orf63 / Fold change vs veh, C1orf63 / RFU, LRRFIP1 / Fold change vs veh, LRRFIP1 / RFU, NDUFAF7 / Fold change vs veh, NDUFAF7 / RFU, SLC12A2 / Fold change vs veh, SLC12A2 / RFU, IBTK / Fold change vs veh, IBTK / RFU, ESF1 / Fold change vs veh, ESF1 / Fold change vs veh, TMEM50B / RFU, TAOK1 / Fold change vs veh, TAOK1 / RFU, ACBD3 / Fold change vs veh, ACBD3 / RFU, TMA16 / Fold change vs veh, TMA16 / RFU, RWDD3 / Fold change vs veh, RWDD3 / RFU, BCAT1 / Fold change vs veh, BCAT1 / RFU, EDEM3 / Fold change vs veh, EDEM3 / RFU, TMEM33 / Fold change vs veh, TMEM33 / RFU, WDR75 / Fold change vs veh, WDR75 / RFU, AHCTF1 / Fold change vs veh, AHCTF1 / RFU, TFRC / Fold change vs veh, TFRC / RFU, ZDHHC17 / Fold change vs veh, ZDHHC17 / RFU, NOM1 / Fold change vs veh, NOM1 / RFU, ARL8B / Fold change vs veh, ARL8B / RFU, ZBTB11 / Fold change vs veh, ZBTB11 / RFU, TAMM41 / Fold change vs veh, TAMM41 / RFU, KIAA1704 /// LOC100996395 / Fold change vs veh, KIAA1704 /// LOC100996395 / RFU, ING1 / Fold change vs veh, ING1 / RFU, TRMT61B / Fold change vs veh, TRMT61B / RFU, FUBP3 / Fold change vs veh, FUBP3 / RFU, TP53 / Fold change vs veh, TP53 / RFU, TNKS2 / Fold change vs veh, TNKS2 / RFU, ZFP14 / Fold change vs veh, ZFP14 / RFU, ACTR2 / Fold change vs veh, ACTR2 / RFU, PPP3R1 / Fold change vs veh, PPP3R1 / RFU, PIK3R1 / Fold change vs veh, PIK3R1 / RFU, HNRNPA1 / Fold change vs veh, HNRNPA1 / RFU, RNF170 / Fold change vs veh, RNF170 / RFU, ZNF28 / Fold change vs veh, ZNF28 / RFU, RNGTT / Fold change vs veh, RNGTT / RFU, OGT / Fold change vs veh, OGT / RFU, BRD1 / Fold change vs veh, BRD1 / RFU, MARS / Fold change vs veh, MARS / RFU, ZNF655 / Fold change vs veh, ZNF655 / RFU, FAHD1 / Fold change vs veh, FAHD1 / RFU, BDP1 / Fold change vs veh, BDP1 / RFU, LRRCC1 / Fold change vs veh, LRRCC1 / RFU, ARID1A / Fold change vs veh, ARID1A / RFU, ZNF146 / Fold change vs veh, ZNF146 / RFU, ZNF330 / Fold change vs veh, ZNF330 / RFU, GPN3 / Fold change vs veh, GPN3 / RFU, C9orf123 / Fold change vs veh, C9orf123 / RFU, N4BP2L2 / Fold change vs veh, N4BP2L2 / RFU, ARFIP1 / Fold change vs veh, ARFIP1 / RFU, FAM179B / Fold change vs veh, FAM179B / RFU, BCL10 / Fold change vs veh, BCL10 / RFU, UHRF1BP1L / Fold change vs veh, UHRF1BP1L / RFU, BET1 / Fold change vs veh, BET1 / RFU, CNOT2 / Fold change vs veh, CNOT2 / RFU, ZNF268 / Fold change vs veh, ZNF268 / Fold change vs veh, ZNF507 / RFU, DGCR2 / Fold change vs veh, DGCR2 / RFU, WDSUB1 / Fold change vs veh, WDSUB1 / Fold change vs veh, HSP90B1 /// MIR3652 / RFU, ADSS / Fold change vs veh, ADSS / RFU, GK / Fold change vs veh, GK / RFU, ZNF148 / Fold change vs veh, ZNF148 / RFU, TAF9 / Fold change vs veh, TAF9 / RFU, SLC1A5 / Fold change vs veh, SLC1A5 / RFU, SLMO2 / Fold change vs veh, SLMO2 / RFU, ABCC4 / Fold change vs veh, ABCC4 / RFU, LOC101060439 /// RAP1B / Fold change vs veh, LOC101060439 /// RAP1B / RFU, RFX7 / Fold change vs veh, RFX7 / RFU, GTPBP10 / Fold change vs veh, GTPBP10 / RFU, CNEP1R1 / Fold change vs veh, CNEP1R1 / RFU, BIVM-ERCC5 /// ERCC5 / Fold change vs veh, BIVM-ERCC5 /// ERCC5 / RFU, ILF3 / Fold change vs veh, ILF3 / RFU 11762660_at / Fold change /veh 11762660_at / RFU VCAN (11757783_s_at) / Fold change /veh VCAN (11757783_s_at) / RFU DDX43 (11728927_at) / Fold change /veh DDX43 (11728927_at) / RFU KRT8 (11758188_x_at) / Fold change /veh KRT8 (11758188_x_at) / RFU NKD1 (11759106_at) / Fold change /veh NKD1 (11759106_at) / RFU SRD5A1 (11742802_a_at) / Fold change /veh SRD5A1 (11742802_a_at) / RFU TPSAB1 /// TPSB2 (11721975_s_at) / Fold change /veh TPSAB1 /// TPSB2 (11721975_s_at) / RFU GSTM3 (11746129_a_at) / Fold change /veh GSTM3 (11746129_a_at) / RFU IL23R (11737362_x_at) / Fold change /veh IL23R (11737362_x_at) / RFU TMEM51 (11727254_a_at) / Fold change /veh TMEM51 (11727254_a_at) / RFU PIWIL2 (11732686_x_at) / Fold change /veh PIWIL2 (11732686_x_at) / RFU ORM1 (11744905_x_at) / Fold change /veh ORM1 (11744905_x_at) / RFU CCDC152 (11743942_at) / Fold change /veh CCDC152 (11743942_at) / RFU ECM1 (11717891_a_at) / Fold change /veh ECM1 (11717891_a_at) / RFU IL23R (11748794_a_at) / Fold change /veh IL23R (11748794_a_at) / RFU TNFAIP8L3 (11732012_x_at) / Fold change /veh TNFAIP8L3 (11732012_x_at) / RFU MBOAT4 (11741988_at) / Fold change /veh MBOAT4 (11741988_at) / RFU 11764193_at / Fold change /veh 11764193_at / RFU TMEM53 (11763286_at) / Fold change /veh TMEM53 (11763286_at) / RFU MAGEB2 (11727129_at) / Fold change /veh MAGEB2 (11727129_at) / RFU TMEM200A (11744735_a_at) / Fold change /veh TMEM200A (11744735_a_at) / RFU CCDC152 (11751479_a_at) / Fold change /veh CCDC152 (11751479_a_at) / RFU FAM211A (11726209_a_at) / Fold change /veh FAM211A (11726209_a_at) / RFU RGS16 (11746705_a_at) / Fold change /veh RGS16 (11746705_a_at) / RFU VCAN (11755009_s_at) / Fold change /veh VCAN (11755009_s_at) / RFU RHOB (11743442_s_at) / Fold change /veh RHOB (11743442_s_at) / RFU RGS16 (11720943_a_at) / Fold change /veh RGS16 (11720943_a_at) / RFU RGS16 (11720944_at) / Fold change /veh RGS16 (11720944_at) / RFU, VPS4B / Fold change vs veh, VPS4B / RFU, CREB1 / Fold change vs veh, CREB1 / RFU, DNAJC13 / Fold change vs veh, DNAJC13 / RFU, GNAQ / Fold change vs veh, GNAQ / RFU, CDK5R1 / Fold change vs veh, CDK5R1 / RFU, ZRANB3 / Fold change vs veh, ZRANB3 / RFU, CUL4A / Fold change vs veh, CUL4A / RFU, CCNY / Fold change vs veh, CCNY / RFU, UFL1 / Fold change vs veh, UFL1 / RFU, COG3 / Fold change vs veh, COG3 / RFU, DIAPH2 / Fold change vs veh, DIAPH2 / RFU, SKA2 / Fold change vs veh, SKA2 / RFU, AFF3 / Fold change vs veh, AFF3 / RFU, LMF1 / Fold change vs veh, LMF1 / RFU, IPO11 / Fold change vs veh, IPO11 / RFU, DFFB / Fold change vs veh, DFFB / RFU, FOXP1 / Fold change vs veh, FOXP1 / RFU, CARD8 / Fold change vs veh, CARD8 / RFU, STRN3 / Fold change vs veh, STRN3 / RFU, ADK / Fold change vs veh, ADK / RFU, RASSF2 / Fold change vs veh, RASSF2 / RFU, WIPF1 / Fold change vs veh, WIPF1 / RFU, LARP1B / Fold change vs veh, LARP1B / RFU, RASA1 / Fold change vs veh, RASA1 / RFU, RB1 / Fold change vs veh, RB1 / RFU, PPFIA1 / Fold change vs veh, PPFIA1 / RFU, MAT2A / Fold change vs veh, MAT2A / RFU, CCT5 / Fold change vs veh, CCT5 / RFU, WDR92 / Fold change vs veh, WDR92 / RFU, CUX1 / Fold change vs veh, CUX1 / RFU, TTC7A / Fold change vs veh, TTC7A / RFU, TMEM135 / Fold change vs veh, TMEM135 / RFU, DEPTOR / Fold change vs veh, DEPTOR / RFU, CPM / Fold change vs veh, CPM / RFU, DNAJB6 / Fold change vs veh, DNAJB6 / RFU, CACNA2D3 / Fold change vs veh, CACNA2D3 / RFU, DTX4 / Fold change vs veh, DTX4 / RFU, TFCP2 / Fold change vs veh, TFCP2 / RFU, GMCL1 /// GMCL1P1 / Fold change vs veh, GMCL1 /// GMCL1P1 / RFU, AEBP2 / Fold change vs veh, AEBP2 / RFU, SNHG1 /// SNORD22 /// SNORD25 /// SNORD26 /// SNORD27 /// SNORD28 /// SNORD29 /// SNORD31 / Fold change vs veh, SNHG1 /// SNORD22 /// SNORD25 /// SNORD26 /// SNORD27 /// SNORD28 /// SNORD29 /// SNORD31 / Fold change (Aza/veh), C12orf56 (ProbeSet 11735607_a_at) / Fold change (ACY-1035/veh), C12orf56 (ProbeSet 11735607_a_at) / Fold change (Aza/veh), FGFR1OP (ProbeSet 11751329_s_at) / Fold change (ACY-1035/veh), FGFR1OP (ProbeSet 11751329_s_at) / Fold change (Aza/veh), VPS36 (ProbeSet 11739960_a_at) / Fold change (ACY-1035/veh), VPS36 (ProbeSet 11739960_a_at) / RFU SYPL1 (11715823_x_at) / Fold change /veh SYPL1 (11715823_x_at) / RFU IGFBP7 (11715501_s_at) / Fold change /veh IGFBP7 (11715501_s_at) / RFU REEP3 (11722064_at) / Fold change /veh REEP3 (11722064_at) / RFU IGLL1 (11728026_x_at) / Fold change /veh IGLL1 (11728026_x_at): dose or concentration left out as unconfirmed
# Conditions: ProbeSet 11741199_a_at; LIST B
structure (smiles),measurement,value
Nc1ccc(-c2cccs2)cc1NC(=O)c1ccc2c(c1)cc(C1CC1)n2CCN1CCOCC1 [ACY-1035],"RFU, LRRCC1",56.24 RFU
